Laboratory results published in patent publication US20240122930A1, “INTEGRIN INHIBITORS AND USES THEREOF IN COMBINATION WITH OTHER AGENTS” (Pliant Therapeutics, Inc., priority 2022, published 2024).
Values joined by “and” are separate entries in the source; they are usually repeats but may differ in a detail not shown here. Identical values can stand only once. “Also recorded” adds a separate entry of the source.

Key:
Assay type in all cases: in vivo, human
[1] = system: PRO-C3, Type III collagen synthesis neoepitope; test: Phase 2a clinical trial: serum biomarker PRO-C3; details: IPF participants, 40 to 320 mg, 4 to 24 weeks
Method: Blank columns represent 40 mg Compound 5 dosage. Grid pattern filled columns represent 80 mg Compound 5 dosage. Diagonal line filled columns represent 160 mg Compound 5 dosage. Dot filled columns represent all participants dosed with Compound 5. […] In FIG. 21, LS refers to Least Squares and SEM refers to Standard Error of Mean.
PRO-C3 and PRO-C6, serum biomarkers of type III and VI collagen synthesis, respectively, were previously shown to be elevated in patients with IPF and associated with progressive disease, according to Respir Res. 2019 Jul. 12; 20(1):148. Doi: 10.1186/s12931-019-1118-7, which is herein incorporated by reference in its entirety. Change from baseline was analyzed using a mixed model for repeated measures with terms for treatment group, visit, baseline value, and treatment-by-visit interaction. LS refers to Least Squares; SE refers to Standard Error.
Med. 2022 June; 10(6):593-602, which is incorporated herein by reference in its entirety. […] Res. 2019 Jul. 12; 20(1):148, which is incorporated herein by reference in its entirety. ** denotes that p<0.01 vs placebo. LS refers to Least Squares. SE refers to Standard Error. Integrin beta-6 data was reported in relative quantitation log2 scale.

[2] = system: pSMAD2:SMAD2 ratio in BAL; test: pSMAD2:SMAD2 ratio in BAL and plasma Cmax in healthy subjects
Method: (§1) In order to evaluate the change of pSMAD2 as a biomarker of TGF-β activity following administration of an integrin inhibitor, and to determine a therapeutically effective dosage and an effective blood plasma Cmax of the integrin inhibitor, healthy subjects were administered Compound 5, a dual selective αVβ6/αVβ1-integrin inhibitor, and the corresponding Cmax levels and decrease in phosphorylation levels and were determined.
(§2) Healthy non-smoking adult males without history of lung disease were selected as subjects and were randomized into 4 cohorts. Broncoalevaolar lavage samples were obtained from all subjects 1 day prior to start of treatment. Cohorts 1 and 2 were administered 20 mg of a compound daily, wherein 3 subjects were administered the dual selective αVβ6/αVβ1-integrin inhibitor (Compound 5) per every 1 subject receiving a placebo compound. Cohorts 3 and 4 were administered 40 mg of a compound daily, wherein 3 subjects were administered the dual selective αVβ6/αVβ1-integrin inhibitor (Compound 5) per every 1 subject receiving a placebo compound. BAL samples and blood samples were taken from all subjects on Day −1 (baseline) and on Day 7 (end of treatment).

[3] = as above; details: male, human, plasma, 40 mg/day, after the dose on Day 7, subjects of FIG. 8A-8F; read-out: Cmax (peak of the blood plasma concentration)
Method: as §1, §2

[4] = 40 mg/day, after the dose on Day 7, subjects of FIG. 8A-8F

With `COCCN(CCCCc1ccc2c(n1)NCCC2)CC[C@H](Nc1ncnc2ccccc12)C(=O)O` [Compound 5, (S)-4-((2-methoxyethyl) (4-(5,6,7,8-tetrahydro-1,8-naphthyridin-2-yl)butyl)amino)-2-(quinazolin-4-ylamino) butanoic acid] the “Serum PRO-C3, change from baseline relative to placebo” value [1] was “decreased; also recorded: reduced; also recorded: dose-dependent reduction”, the “Cmax (peak of the blood plasma concentration)” value [2, 4] was 700 to 900 ng/mL and < 700 ng/mL and the “PD effect (relative change in pSMAD2:SMAD2 ratio from baseline in BAL)” value [2, 4] was “sustained PD effect; also recorded: transitory PD effect; also recorded: no PD effect”. For the same compound, the “correlation of plasma Cmax with reduction of pSMAD2:SMAD2 ratio relative to baseline” value ([2]; 12 h and 24 h post-administration on Day 7) was “strongly correlated” and the Cmax [3] was over 900 ng/mL.
